The values below come from patent publication US20150050301A1, “Contiguous Overlapping Peptides for Treatment of House Dust Mites Allergy” (ANERGIS S.A., priority 2013, published 2015).

Series [1] is described as follows: Solubility Characteristics of COPs. The class given is physicochemical. As for the experimental part:
All COPs were synthesized by solid phase fmoc chemistry at research scale to allow determination of IgE binding. […] Peptides were resuspended either in water at 2 mg/ml or at 10 to 20 mg per ml in DMSO (see Table 1) and frozen in aliquots.

For series [2], the system named is IgE of sera of house dust mite allergic patients binding to nDer p 1. Description: Competition ELISA on Der p 1 coated plates. The note with it: for effect of denaturing salts on IgE binding (Der p 1 competition ELISA): denaturing salts incl. guanidinium chloride or urea, 30 min pre-incubation with 1M guanidinium chloride; for IgE binding in competition ELISA (Der p 1): sera from patients allergic to house dust mites, COPs 10^−5 to 10^−10 M. Also on record: species or system human. As for the experimental part: Purified Der p 1 or Der p 2 at 1.0 μg/ml were coated overnight on 96-well Nunc Maxisorp® immunoplates (Thermo Fisher Scientific Inc., Wohlen, Switzerland). After blocking with 1% BSA, either twenty-fold, thirty-fold or forty-fold up to 200-fold dilutions of patient serum were added depending on specific IgE content. […] Sera of allergic patients were obtained from US and Europe (PlasmaLab International, Everett, Wash., USA and Biomnis, Lyon, France) respectively) selected for positive CAP for D. pteronyssinus and clear signal over background and used to test for competition with the peptides. Serial dilutions of each set of COPs, namely for Der p 1 Set A, B, C or D and for Der p 2 mixes D, E or F at concentrations ranging from 10^−5 to 10^−10 M were pre-incubated with selected serums for 15 min. on ice.
(An ELISA detects its analyte on a solid surface through an enzyme-linked reagent.)

Where two headings read alike, the source gives them in different places. Residues, ends and D or L forms follow the SMILES beside them. No end group written: not given here.

Regarding `CC[C@H](C)[C@H](NC(=O)CNC(=O)[C@H](Cc1ccccc1)NC(=O)[C@H](CCCNC(=N)N)NC(=O)[C@H](CCC(N)=O)NC(=O)[C@H](C)NC(=O)[C@H](CC(N)=O)NC(=O)[C@@H]1CCCN1C(=O)[C@H](CCCNC(=N)N)NC(=O)[C@H](CCCNC(=N)N)NC(=O)[C@H](CS)NC(=O)[C@H](CO)NC(=O)[C@H](CCC(N)=O)NC(=O)[C@H](CCC(=O)O)NC(=O)[C@H](CCCNC(=N)N)NC(=O)[C@H](C)N)C(=O)N[C@@H](CO)C(=O)N[C@@H](CC(N)=O)C(=O)N[C@@H](Cc1ccc(O)cc1)C(=O)N[C@@H](CS)C(=O)N[C@@H](CCC(N)=O)C(=O)N[C@H](C(=O)N[C@@H](Cc1ccc(O)cc1)C(=O)N1CCC[C@H]1C(=O)N1CCC[C@H]1C(=O)N[C@@H](CC(N)=O)C(=O)N[C@H](C(=O)N[C@@H](CC(N)=O)C(=O)N[C@@H](CCCCN)C(=O)N[C@H](C(=O)N[C@@H](CCCNC(=N)N)C(=O)N[C@@H](CCC(=O)O)C(=O)O)[C@@H](C)CC)C(C)C)[C@@H](C)CC` [AllerDM1.5a] (H-AREQSCRRPNAQRFGISNYCQIYPPNVNKIRE-OH; N-terminus and C-terminus assumed), in series [1], the solubility in words result was “solubility in water”. Also, in series [1] (Solvent H2O), the Conc. is 4700 µg/mL.

`CC[C@H](C)[C@H](NC(=O)CNC(=O)[C@H](Cc1ccccc1)NC(=O)[C@H](CCCNC(=N)N)NC(=O)[C@H](CCC(N)=O)NC(=O)[C@H](C)NC(=O)[C@H](CC(N)=O)NC(=O)[C@@H]1CCCN1C(=O)[C@H](CCCNC(=N)N)NC(=O)[C@H](CCCNC(=N)N)NC(=O)[C@H](CS)NC(=O)[C@H](CO)NC(=O)[C@H](CCC(N)=O)NC(=O)[C@H](CCC(=O)O)NC(=O)[C@H](CCCNC(=N)N)NC(=O)[C@H](C)NC(=O)[C@@H](NC(=O)[C@H](Cc1ccc(O)cc1)NC(=O)[C@@H](N)CCCNC(=N)N)C(C)C)C(=O)N[C@@H](CO)C(=O)N[C@@H](CC(N)=O)C(=O)N[C@@H](Cc1ccc(O)cc1)C(=O)N[C@@H](CS)C(=O)N[C@@H](CCC(N)=O)C(=O)N[C@H](C(=O)N[C@@H](Cc1ccc(O)cc1)C(=O)N1CCC[C@H]1C(=O)N1CCC[C@H]1C(=O)N[C@@H](CC(N)=O)C(=O)N[C@H](C(=O)N[C@@H](CC(N)=O)C(=O)N[C@@H](CCCCN)C(=O)N[C@H](C(=O)N[C@@H](CCCNC(=N)N)C(=O)N[C@@H](CCC(=O)O)C(=O)O)[C@@H](C)CC)C(C)C)[C@@H](C)CC` [AllerDM1.54] (H-RYVAREQSCRRPNAQRFGISNYCQIYPPNVNKIRE-OH; N-terminus and C-terminus assumed): the solubility in words entry in series [1] is “solubility in water”. In series [1] (Solvent H2O), this molecule displayed a Conc. of 2000 µg/mL.

`CC[C@H](C)[C@H](NC(=O)[C@H](CCC(=O)O)NC(=O)[C@H](Cc1c[nH]cn1)NC(=O)[C@H](CC(N)=O)NC(=O)[C@H](C)NC(=O)[C@H](CS)NC(=O)[C@H](CC(=O)O)NC(=O)[C@H](CCCCN)NC(=O)[C@@H](NC(=O)[C@H](CC(=O)O)NC(=O)[C@@H](NC(=O)[C@H](CCC(N)=O)NC(=O)[C@@H](N)CC(=O)O)C(C)C)C(C)C)C(=O)N[C@@H](CCCCN)C(=O)N[C@@H](CCCCN)C(=O)N[C@H](C(=O)N[C@@H](CC(C)C)C(=O)N[C@H](C(=O)N1CCC[C@H]1C(=O)NCC(=O)N[C@@H](CS)C(=O)N[C@@H](Cc1c[nH]cn1)C(=O)NCC(=O)N[C@@H](CO)C(=O)N[C@@H](CCC(=O)O)C(=O)O)C(C)C)C(C)C` [AllerDM2.3] (H-DQVDVKDCANHEIKKVLVPGCHGSE-OH; N-terminus and C-terminus assumed) showed a Conc. in series [1] (Solvent H2O) of 3000 µg/mL.

Molecule `CC[C@H](C)[C@H](NC(=O)[C@H](CCC(=O)O)NC(=O)[C@H](Cc1c[nH]cn1)NC(=O)[C@H](CC(N)=O)NC(=O)[C@H](C)NC(=O)[C@H](CS)NC(=O)[C@H](CC(=O)O)NC(=O)[C@H](CCCCN)NC(=O)[C@@H](NC(=O)[C@H](CC(=O)O)NC(=O)[C@@H](NC(=O)[C@H](CCC(N)=O)NC(=O)[C@@H](N)CC(=O)O)C(C)C)C(C)C)C(=O)N[C@@H](CCCCN)C(=O)N[C@@H](CCCCN)C(=O)N[C@H](C(=O)N[C@@H](CC(C)C)C(=O)N[C@H](C(=O)N1CCC[C@H]1C(=O)NCC(=O)N[C@@H](CS)C(=O)N[C@@H](Cc1c[nH]cn1)C(=O)NCC(=O)N[C@@H](CO)C(=O)N[C@@H](CCC(=O)O)C(=O)N1CCC[C@H]1C(=O)N[C@@H](CS)C(=O)N[C@H](C(=O)N[C@H](C(=O)N[C@@H](Cc1c[nH]cn1)C(=O)N[C@@H](CCCNC(=N)N)C(=O)O)[C@@H](C)CC)[C@@H](C)CC)C(C)C)C(C)C` [AllerDM2.6] (H-DQVDVKDCANHEIKKVLVPGCHGSEPCIIHR-OH; N-terminus and C-terminus assumed) had a Conc. in series [1] (Solvent H2O) of 3000 µg/mL.

Consider “ASQHGCHGDTIPRGIEYIQHNGVVQESYYRYVAREQS [AllerDM1.53]”, for which the solubility in words result in series [1] was “solubility in water”. The molecule also returned a Conc. in series [1] (Solvent H2O) of 4000 µg/mL.

With “ASQHGCHGDTIPRGIEYIQHNGVVQESYYRYVAREQSCRRPNAQRFGISNYCQIYPPNVNKIRE [AllerDM1.52]”, in series [2], the “effect of denaturing salts on IgE binding (Der p 1 competition ELISA)” value is on record as “strongly diminished IgE binding” and the “IgE binding in competition ELISA (Der p 1)” value (“IgE binding … (Der p 1)” for short) is “still bound IgE”. For the same molecule, in series [1], the Conc. was found to be 2300 µg/mL and the solubility in words result is reported as “solubility in water”.

“HGSEPCIIHRGKPFQLEALFEANQNSKTAKIEIKASIDGLEVDVPGIDPNACHYMK (cysteines drawn unpaired) [AllerDM2.4]” had a Conc. in series [1] of 4200 µg/mL.

Molecule “HYMKCPLVKGQQYDIKYTWNVPKIAPKSENVVVTVKVLGDNGVLACAIATHAKIRD (cysteines drawn unpaired) [AllerDM2.5]” gave a Conc. in series [1] (Solvent H2O) of 1500 µg/mL.

As to KVLGDNGVLACAIATHAKIRD [AllerDM2.9], the Conc. in series [1] (Solvent H2O) worked out at 1000 µg/mL.

In series [1] (Solvent H2O), “KYTWNVPKIAPKSENVVVTVKVLGDNGVLACAIATHAKIRD [AllerDM2.8]” came in with a Conc. of 3500 µg/mL.

Take “LAEQELVDCASQHGCHGDTIPRGIEYIQHNGVVQESYYRYVAREQSCRRPNAQRFGISNYCQIYPPNVNKIRE [AllerDM1.5]”: the “IgE binding … (Der p 1)” value in series [2] is on record as “responsible for the reactivity”. In series [1], the Conc. amounted to 1700 µg/mL and the solubility in words result was “solubility in water”.

In turn, “PNVNKIREALAQTHSAIAVIIGIKDLDAFRHYDGR [AllerDM1.63]” showed a Conc. in series [1] (Solvent H2O) of 2000 µg/mL.

Take “PNVNKIREALAQTHSAIAVIIGIKDLDAFRHYDGRTIIQRDNGYQPNYHAVNIVGYSNAQGVD [AllerDM1.62]”: in series [2], the “effect of denaturing salts on IgE binding (Der p 1 competition ELISA)” value was “strongly diminished IgE binding” and the “IgE binding … (Der p 1)” value was “residual IgE binding”. For the same molecule, the Conc. in series [1] is 2500 µg/mL.

Regarding “PNVNKIREALAQTHSAIAVIIGIKDLDAFRHYDGRTIIQRDNGYQPNYHAVNIVGYSNAQGVDYWIVRNSWDT [AllerDM1.6]”, in series [2], the “IgE binding … (Der p 1)” value is recorded as “responsible for the reactivity”. Besides, the Conc. in series [1] amounted to 800 µg/mL.

The molecule “RHYDGRTIIQRDNGYQPNYHAVNIVGYSNAQGVD [AllerDM1.64]” returned a Conc. in series [1] (Solvent H2O) of 4000 µg/mL.

“SIDGLEVDVPGIDPNACHYMKCPLVKGQQYDIKYTWNVPKIAPKSENVVVTVKVLGD (cysteines drawn unpaired) [AllerDM2.10]”: the Conc. in series [1] (H2O after acidification with HCl and neutralization with NaOH) is 2000 µg/mL.

B1: TNACSINGNAPAEIDLRQMRTVTPIRMQGGCGSCWAFSGVAATESAYLAYRNQSLDLAEQELVDCASQHGCHGDTIPRGIE (peptide, listed as Dermatophagoides pteronyssinus)
chain: TNACSINGNAPAEIDLRQMRTVTPIRMQGGCGSCWAFSGVAATESAYLAYRNQSLDLAEQELVDCASQHGCHGDTIPRGIE
notes: Der p 1 contiguous overlapping peptide, 81AA
B1 gave a Conc. in series [1] (H2O after addition of HCl and NaOH and citrate buffer pH5.5) of 1000 µg/mL.

B2: SQHGCHGDTIPRGIEYIQHNGVVQESYYRYVAREQSCRRPNAQRFGISNYCQIYPPNVNKIREALAQTHSAIAVIIGIKDLDAFRH (peptide)
peptide: SQHGCHGDTIPRGIEYIQHNGVVQESYYRYVAREQSCRRPNAQRFGISNYCQIYPPNVNKIREALAQTHSAIAVIIGIKDLDAFRH
As for B2, the “IgE binding … (Der p 1)” value in series [2] is “Residual IgE binding was observed”. Moreover, the Conc. in series [1] was determined as 2000 µg/mL.

B3: AIAVIIGIKDLDAFRHYDGRTIIQRDNGYQPNYHAVNIVGYSNAQGVDYWIVRNSWDTNWGDNGYGYFAANIDLMMIEEYPYVVIL (peptide)
peptide: AIAVIIGIKDLDAFRHYDGRTIIQRDNGYQPNYHAVNIVGYSNAQGVDYWIVRNSWDTNWGDNGYGYFAANIDLMMIEEYPYVVIL
On to B3, for which, in series [2], the “IgE binding … (Der p 1)” value was “Residual IgE binding was observed”. The Conc. in series [1] was 500 µg/mL.

B4: TNACSINGNAPAEIDLRQMRTVTPIRMQGGCGSCWAFSGVAATESAYLAYRNQSLDLAEQELVDCASQHG (peptide, listed as Dermatophagoides pteronyssinus)
chain: TNACSINGNAPAEIDLRQMRTVTPIRMQGGCGSCWAFSGVAATESAYLAYRNQSLDLAEQELVDCASQHG
notes: Der p 1 contiguous overlapping peptide, 70AA, T99 to G168
Take B4: the “IgE binding … (Der p 1)” value in series [2] is “no detectable IgE binding”. This molecule also gave a Conc. in series [1] (Solvent 7M guanidinium chloride) of 30000 µg/mL.

B5: TNACSINGNAPAEIDLRQMRTVTPIRMQGGCGSCWAFSGVAATESAYLAYRNQSLDLAEQELVDCA (peptide, listed as Dermatophagoides pteronyssinus)
chain: TNACSINGNAPAEIDLRQMRTVTPIRMQGGCGSCWAFSGVAATESAYLAYRNQSLDLAEQELVDCA
notes: Der p 1 contiguous overlapping peptide, 66AA
Turning to B5, in series [2], the “IgE binding … (Der p 1)” value is reported as “no detectable IgE binding”. Also, the “solubility remark” value in series [1] (1.2: when added to Citrate buffer or PBS at 2 × 10^−5M) is given as “NaOH) Difficult pH8”. This molecule gave a Conc. in series [1] (H2O, pH adjusted with HCl and NaOH) of 1000 µg/mL.
